Measurements as given in the NIST ThermoML archive (doi:10.1016/j.jct.2015.07.005).
Several values for one entry are separate records, joined by “and”; a condition that tells them apart may be missing. Equal values may be shown once.

Details: Gas, Frequency=0.005 MHz, Spherical cavity resonance method

F/C=C/C(F)(F)F [trans-1,3,3,3-tetrafluoropropene]
Details | speed of sound
279.9 K, 79.55 kPa | 146.69 m/s and 146.7 m/s
279.9 K, 157.55 kPa | 143.78 m/s
279.9 K, 241.33 kPa | 140.43 m/s
279.91 K, 79.56 kPa | 146.7 m/s
279.91 K, 241.34 kPa | 140.43 m/s
279.92 K, 157.55 kPa | 143.79 m/s
279.92 K, 241.34 kPa | 140.43 m/s
299.96 K, 80.04 kPa | 152.13 m/s
299.96 K, 239.74 kPa | 147.27 m/s
299.97 K, 80.03 kPa | 152.13 m/s
299.97 K, 159.07 kPa | 149.78 m/s
299.97 K, 239.75 kPa | 147.27 m/s
299.97 K, 361.26 kPa | 143.22 m/s
299.98 K, 80.03 kPa | 152.13 m/s
299.98 K, 159.07 kPa | 149.78 m/s
299.98 K, 239.74 kPa | 147.27 m/s
299.98 K, 361.27 kPa | 143.22 m/s
319.93 K, 552.34 kPa | 144.79 m/s
319.94 K, 98.42 kPa | 156.86 m/s
319.94 K, 195.83 kPa | 154.47 m/s
319.94 K, 195.84 kPa | 154.47 m/s
319.94 K, 400.99 kPa | 149.11 m/s
319.94 K, 552.38 kPa | 144.78 m/s
319.94 K, 552.39 kPa | 144.78 m/s
319.95 K, 98.42 kPa | 156.87 m/s
319.95 K, 195.84 kPa | 154.47 m/s
319.95 K, 400.99 kPa | 149.1 m/s
319.96 K, 98.42 kPa | 156.86 m/s
319.97 K, 790.74 kPa | 137.11 m/s
319.97 K, 790.76 kPa | 137.11 m/s
319.98 K, 790.76 kPa | 137.11 m/s
319.98 K, 790.77 kPa | 137.11 m/s
319.99 K, 790.81 kPa | 137.11 m/s
339.94 K, 1198.3 kPa | 134.8 m/s and 134.79 m/s
339.95 K, 199.81 kPa | 159.81 m/s
339.95 K, 199.82 kPa | 159.81 m/s
339.95 K, 311.18 kPa | 157.48 m/s
339.95 K, 311.19 kPa | 157.48 m/s
339.95 K, 511.43 kPa | 153.07 m/s
339.95 K, 511.55 kPa | 153.07 m/s
339.95 K, 797.03 kPa | 146.18 m/s
339.95 K, 797.04 kPa | 146.18 m/s
339.95 K, 1001.8 kPa | 140.68 m/s
339.95 K, 1001.9 kPa | 140.68 m/s
339.95 K, 1198.4 kPa | 134.8 m/s
339.96 K, 99.31 kPa | 161.86 m/s
339.96 K, 200.05 kPa | 159.82 m/s
339.96 K, 311.18 kPa | 157.48 m/s
339.96 K, 400.04 kPa | 155.58 m/s and 155.58 m/s
339.96 K, 511.39 kPa | 153.07 m/s
339.96 K, 797.05 kPa | 146.18 m/s
339.96 K, 1001.9 kPa | 140.68 m/s
339.97 K, 99.31 kPa | 161.86 m/s
339.97 K, 200.05 kPa | 159.82 m/s
339.97 K, 200.06 kPa | 159.82 m/s
339.97 K, 400.04 kPa | 155.58 m/s
339.97 K, 799.59 kPa | 146.12 m/s
339.98 K, 595.08 kPa | 151.15 m/s
339.98 K, 799.46 kPa | 146.12 m/s
339.98 K, 799.52 kPa | 146.12 m/s
359.95 K, 99 kPa | 166.68 m/s
359.95 K, 99.01 kPa | 166.68 m/s
359.96 K, 99 kPa | 166.68 m/s
359.96 K, 99.01 kPa | 166.69 m/s and 166.68 m/s
359.96 K, 307 kPa | 163.12 m/s
359.96 K, 510.35 kPa | 159.46 m/s
359.96 K, 808.74 kPa | 153.75 m/s
359.96 K, 1598.8 kPa | 135.69 m/s
359.97 K, 307 kPa | 163.12 m/s
359.97 K, 511.03 kPa | 159.45 m/s
359.97 K, 808.65 kPa | 153.75 m/s
359.97 K, 808.68 kPa | 153.75 m/s
359.97 K, 1174.2 kPa | 146.04 m/s
359.97 K, 1174.3 kPa | 146.04 m/s
359.97 K, 1598.8 kPa | 135.7 m/s
359.97 K, 2002.9 kPa | 123.58 m/s and 123.58 m/s
359.98 K, 1598.8 kPa | 135.7 m/s
359.98 K, 2002.9 kPa | 123.58 m/s
379.99 K, 98.62 kPa | 171.32 m/s
379.99 K, 98.63 kPa | 171.32 m/s
379.99 K, 297.94 kPa | 168.44 m/s
